The NIST ThermoML archive (doi:10.1016/j.fluid.2010.03.001)
± gives the expanded uncertainty stated by the source.

What was measured:
[1] = Liquid; for viscosity / mass density: 101.33 kPa; for viscosity: Concentric cylinders viscometry; for mass density: Vibrating tube method; for vapor or sublimation pressure: Ebulliometric method (Recirculating still)
[2] = xn = mol fraction of the nth substance listed; conditions: 101 kPa, Liquid, x1 = 1; for viscosity: Concentric cylinders viscometry; for mass density: Vibrating tube method

`CCCCCO` [pentan-1-ol] gave a viscosity ([1]; 293.15 K) of 4.03 ± 0.04 mPa·s, a mass density ([1]; 293.15 K) of 814.7 ± 0.3 kg/m3 and a viscosity ([1]; 298.15 K) of 3.48 ± 0.04 mPa·s. It also gave a mass density ([1]; 298.15 K) of 810.7 ± 0.3 kg/m3, a viscosity ([1]; 303.15 K) of 3.02 ± 0.03 mPa·s and a mass density ([1]; 303.15 K) of 807.2 ± 0.3 kg/m3. The viscosity ([1]; 313.15 K) was 2.315 ± 0.024 mPa·s, the mass density ([1]; 313.15 K) was 799.8 ± 0.3 kg/m3 and the viscosity ([1]; 323.15 K) was 1.801 ± 0.019 mPa·s. For the same compound, the mass density ([1]; 323.15 K) was 792.2 ± 0.3 kg/m3, the “vapor or sublimation pressure” value ([1]; 328.15 K) was 2.3 ± 0.1 kPa and the “vapor or sublimation pressure” value ([1]; 329.5 K) was 2.5 ± 0.1 kPa. The viscosity ([1]; 333.15 K) was 1.425 ± 0.015 mPa·s, the mass density ([1]; 333.15 K) was 784.3 ± 0.3 kg/m3 and the “vapor or sublimation pressure” value ([1]; 333.15 K) was 3.1 ± 0.1 kPa. The “vapor or sublimation pressure” value ([1]; 338.15 K) was 4.2 ± 0.1 kPa, the “vapor or sublimation pressure” value ([1]; 341.2 K) was 5 ± 0.1 kPa and the viscosity ([1]; 343.15 K) was 1.146 ± 0.013 mPa·s. The mass density ([1]; 343.15 K) was 776.3 ± 0.3 kg/m3, the “vapor or sublimation pressure” value ([1]; 343.15 K) was 5.6 ± 0.1 kPa and the “vapor or sublimation pressure” value ([1]; 348.75 K) was 7.5 ± 0.1 kPa. For the same compound, the viscosity ([1]; 353.15 K) was 0.935 ± 0.011 mPa·s, the mass density ([1]; 353.15 K) was 768 ± 0.3 kg/m3 and the “vapor or sublimation pressure” value ([1]; 354.37 K) was 10 ± 0.1 kPa. For the same compound, the “vapor or sublimation pressure” value ([1]; 362.63 K) was 15 ± 0.1 kPa, the viscosity ([1]; 363.15 K) was 0.772 ± 0.009 mPa·s and the mass density ([1]; 363.15 K) was 759.5 ± 0.3 kg/m3. For the same compound, the “vapor or sublimation pressure” value ([1]; 368.86 K) was 20 ± 0.1 kPa, the viscosity ([1]; 373.15 K) was 0.647 ± 0.008 mPa·s and the mass density ([1]; 373.15 K) was 750.6 ± 0.3 kg/m3. The “vapor or sublimation pressure” value ([1]; 378.2 K) was 30 ± 0.1 kPa, the “vapor or sublimation pressure” value ([1]; 385.33 K) was 40 ± 0.1 kPa and the “vapor or sublimation pressure” value ([1]; 391.03 K) was 50 ± 0.1 kPa. The “vapor or sublimation pressure” value ([1]; 395.87 K) was 60 ± 0.2 kPa, the “vapor or sublimation pressure” value ([1]; 400.1 K) was 70 ± 0.2 kPa and the “vapor or sublimation pressure” value ([1]; 403.86 K) was 80 ± 0.2 kPa. The “vapor or sublimation pressure” value ([1]; 407.25 K) was 90 ± 0.2 kPa and the “vapor or sublimation pressure” value ([1]; 408.9 K) was 95.1 ± 0.2 kPa.

Compound `C=C(C)[C@H]1CC=C(C)CC1` [(R)-1-methyl-4-(1-methylethenyl)cyclohexene] has a viscosity ([1]; 293.15 K) of 0.902 ± 0.014 mPa·s, a viscosity ([1]; 298.15 K) of 0.89 ± 0.014 mPa·s and a mass density ([1]; 298.15 K) of 837.3 ± 1 kg/m3. It also gave a viscosity ([1]; 303.15 K) of 0.793 ± 0.013 mPa·s, a mass density ([1]; 303.15 K) of 833.6 ± 1 kg/m3 and a viscosity ([1]; 313.15 K) of 0.702 ± 0.011 mPa·s. For the same compound, the mass density ([1]; 313.15 K) was 825.8 ± 1 kg/m3, the viscosity ([1]; 323.15 K) was 0.628 ± 0.01 mPa·s and the mass density ([1]; 323.15 K) was 817.9 ± 1 kg/m3. It also gave a viscosity ([1]; 333.15 K) of 0.566 ± 0.01 mPa·s, a mass density ([1]; 333.15 K) of 809.9 ± 0.9 kg/m3 and a viscosity ([1]; 343.15 K) of 0.5 ± 0.009 mPa·s. The mass density ([1]; 343.15 K) was 801.9 ± 0.9 kg/m3, the viscosity ([1]; 353.15 K) was 0.452 ± 0.008 mPa·s and the mass density ([1]; 353.15 K) was 793.6 ± 0.9 kg/m3. It also gave a viscosity ([1]; 363.15 K) of 0.413 ± 0.008 mPa·s, a mass density ([1]; 363.15 K) of 785.4 ± 0.9 kg/m3 and a viscosity ([1]; 373.15 K) of 0.382 ± 0.007 mPa·s. The mass density ([1]; 373.15 K) was 777.1 ± 0.9 kg/m3.

Work on `CCCCCO` [pentan-1-ol] + C=C(C)[C@H]1CC=C(C)CC1 yielded a viscosity ([2]; 293.15 K) of 4.03 ± 0.04 mPa·s, a mass density ([2]; 293.15 K) of 814.7 ± 0.3 kg/m3 and a viscosity ([2]; 303.15 K) of 3.02 ± 0.03 mPa·s. The mass density ([2]; 303.15 K) was 807.2 ± 0.3 kg/m3, the viscosity ([2]; 313.15 K) was 2.315 ± 0.024 mPa·s and the mass density ([2]; 313.15 K) was 799.8 ± 0.3 kg/m3. For the same compound, the viscosity ([2]; 323.15 K) was 1.801 ± 0.019 mPa·s, the mass density ([2]; 323.15 K) was 792.2 ± 0.3 kg/m3 and the viscosity ([2]; 333.15 K) was 1.425 ± 0.015 mPa·s. For the same compound, the mass density ([2]; 333.15 K) was 784.3 ± 0.3 kg/m3, the viscosity ([2]; 343.15 K) was 1.146 ± 0.013 mPa·s and the mass density ([2]; 343.15 K) was 776.3 ± 0.3 kg/m3. It also gave a viscosity ([2]; 353.15 K) of 0.935 ± 0.011 mPa·s, a mass density ([2]; 353.15 K) of 768 ± 0.3 kg/m3 and a viscosity ([2]; 363.15 K) of 0.772 ± 0.009 mPa·s. The mass density ([2]; 363.15 K) was 759.5 ± 0.3 kg/m3, the viscosity ([2]; 373.15 K) was 0.647 ± 0.008 mPa·s and the mass density ([2]; 373.15 K) was 750.6 ± 0.3 kg/m3.
